Experimental data taken from patent publication US10385054B2, “Pyrrolo[3,2-d]pyrimidine derivatives for the treatment of viral infections and other diseases” (Janssen Sciences Ireland Unlimited Company, priority 2013, dated 2019).

How the values were obtained:
Type in all cases: cell-based
human TLR8 = molecular target: T1, human TLR8 (Homo sapiens, UniProt Q9NR97); test: TLR8 cellular NFκB-luc reporter assay in transiently transfected HEK293 cells; settings: lowest effective concentration, 6 hours incubation
T1 construct: expressed in transfected cells; host or cells: HEK293
T1 sequence (Q9NR97 27-1041): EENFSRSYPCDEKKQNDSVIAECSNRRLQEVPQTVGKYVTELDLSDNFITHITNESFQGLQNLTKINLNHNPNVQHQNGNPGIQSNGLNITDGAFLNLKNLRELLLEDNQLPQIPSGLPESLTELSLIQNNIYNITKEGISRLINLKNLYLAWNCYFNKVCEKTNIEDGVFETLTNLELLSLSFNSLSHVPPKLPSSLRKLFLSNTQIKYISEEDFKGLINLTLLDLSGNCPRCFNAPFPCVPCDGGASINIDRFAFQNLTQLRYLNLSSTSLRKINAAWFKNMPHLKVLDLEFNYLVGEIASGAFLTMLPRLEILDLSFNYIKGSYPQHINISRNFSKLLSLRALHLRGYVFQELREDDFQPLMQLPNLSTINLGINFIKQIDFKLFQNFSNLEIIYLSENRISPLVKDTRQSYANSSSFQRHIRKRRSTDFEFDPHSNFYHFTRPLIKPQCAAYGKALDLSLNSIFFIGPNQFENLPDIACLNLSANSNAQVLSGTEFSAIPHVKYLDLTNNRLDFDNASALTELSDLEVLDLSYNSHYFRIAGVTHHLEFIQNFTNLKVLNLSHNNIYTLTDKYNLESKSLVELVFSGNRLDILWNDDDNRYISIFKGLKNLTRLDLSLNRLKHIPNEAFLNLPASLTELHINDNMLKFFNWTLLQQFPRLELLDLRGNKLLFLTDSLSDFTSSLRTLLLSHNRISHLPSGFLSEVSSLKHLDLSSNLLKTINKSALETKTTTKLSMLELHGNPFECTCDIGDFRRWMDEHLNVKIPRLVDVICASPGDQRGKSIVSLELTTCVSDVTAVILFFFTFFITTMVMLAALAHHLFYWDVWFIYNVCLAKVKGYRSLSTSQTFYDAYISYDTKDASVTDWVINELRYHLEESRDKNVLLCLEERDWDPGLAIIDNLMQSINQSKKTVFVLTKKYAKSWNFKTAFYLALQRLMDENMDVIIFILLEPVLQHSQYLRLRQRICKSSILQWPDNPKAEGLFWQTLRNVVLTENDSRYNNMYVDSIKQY
Experimental: (§1) The ability of compounds to activate human TLR7 and/or TLR8 was assessed in a cellular reporter assay using HEK293 cells transiently transfected with a TLR7 or TLR8 expression vector and NFκB-luc reporter construct.
(§2) Briefly, HEK293 cells were grown in culture medium (DMEM supplemented with 10% FCS and 2 mM Glutamine). For transfection of cells in 15 cm dishes, cells were detached with Trypsin-EDTA, transfected with a mix of CMV-TLR7 or TLR8 plasmid (1700 ng), NFκB-luc plasmid (850 ng) and a transfection reagent and incubated for 48 h at 37° C. in a humidified 5% CO2 atmosphere. Transfected cells were then washed in PBS, detached with Trypsin-EDTA and resuspended in medium to a density of 1.25×10^5 cells/mL. Forty microliters of cells were then dispensed into each well in 384-well plates, where 200 nL of compound in 100% DMSO was already present. Following 6 hours incubation at 37° C., 5% CO2, the luciferase activity was determined by adding 15 μL of Steady Lite Plus substrate (Perkin Elmer) to each well and readout performed on a ViewLux ultraHTS microplate imager (Perkin Elmer). Dose response curves were generated from measurements performed in quadruplicates. Lowest effective concentrations (LEC) values, defined as the concentration that induces an effect which is at least two fold above the standard deviation of the assay, were determined for each compound.

human TLR7 = molecular target: T2, human TLR7 (Homo sapiens, UniProt Q9NYK1); test: TLR7 cellular NFκB-luc reporter assay in transiently transfected HEK293 cells; settings: lowest effective concentration, 6 hours incubation
T2 construct: expressed in transfected cells; host or cells: HEK293
T2 sequence (Q9NYK1 27-1049): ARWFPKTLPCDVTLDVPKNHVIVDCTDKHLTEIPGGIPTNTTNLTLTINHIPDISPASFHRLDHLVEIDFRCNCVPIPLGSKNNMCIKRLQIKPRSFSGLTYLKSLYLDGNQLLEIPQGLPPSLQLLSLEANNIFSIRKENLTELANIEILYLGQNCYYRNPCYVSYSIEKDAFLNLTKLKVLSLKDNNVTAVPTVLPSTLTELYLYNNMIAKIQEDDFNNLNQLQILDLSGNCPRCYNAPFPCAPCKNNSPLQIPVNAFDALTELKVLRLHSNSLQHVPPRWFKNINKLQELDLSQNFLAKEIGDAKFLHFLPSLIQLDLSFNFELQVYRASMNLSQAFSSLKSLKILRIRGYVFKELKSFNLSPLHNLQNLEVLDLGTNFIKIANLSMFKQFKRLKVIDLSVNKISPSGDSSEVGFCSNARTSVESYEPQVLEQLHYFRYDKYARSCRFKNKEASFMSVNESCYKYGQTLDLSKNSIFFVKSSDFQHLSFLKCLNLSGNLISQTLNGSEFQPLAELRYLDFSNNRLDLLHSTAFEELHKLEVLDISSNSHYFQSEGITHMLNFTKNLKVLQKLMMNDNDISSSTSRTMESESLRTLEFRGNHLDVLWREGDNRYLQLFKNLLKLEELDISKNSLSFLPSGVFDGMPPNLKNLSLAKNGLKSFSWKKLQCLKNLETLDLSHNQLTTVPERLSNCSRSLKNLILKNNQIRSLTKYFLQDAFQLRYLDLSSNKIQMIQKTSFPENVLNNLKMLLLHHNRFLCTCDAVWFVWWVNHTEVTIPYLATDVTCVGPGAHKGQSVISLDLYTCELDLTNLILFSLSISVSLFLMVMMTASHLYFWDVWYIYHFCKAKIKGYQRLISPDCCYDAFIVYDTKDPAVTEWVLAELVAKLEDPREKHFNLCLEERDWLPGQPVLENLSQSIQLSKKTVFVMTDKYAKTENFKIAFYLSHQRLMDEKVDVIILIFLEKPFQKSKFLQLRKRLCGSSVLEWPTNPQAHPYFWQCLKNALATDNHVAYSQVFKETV
Experimental: as §1
as §2, with “quadruplicates.” for “quadruplicates. Lowest effective concentrations (LEC) values, defined as the concentration that induces an effect which is at least two fold above the standard deviation of the assay, were determined for each compound.”

[1] = tested on: interferon-stimulated responsive elements (ISRE); test: Activation of ISRE promoter elements in HEK-ISREluc cells by conditioned media from compound-treated PBMC; settings: compound concentration applied to PBMCs overnight, supernatant on HEK-ISREluc cells 24 hours, read-out: HEK-ISRE luc (LEC)
Experimental: The potential of compounds to induce IFN-I was also evaluated by measuring the activation of interferon-stimulated responsive elements (ISRE) by conditioned media from PBMC. The ISRE element of sequence […] (SEQ ID NO: 1) is highly responsive to the STAT1-STAT2-IRF9 transcription factor, activated upon binding of IFN-I to their receptor IFNAR (Clontech, PT3372-5W). The plasmid pISRE-Luc from Clontech (ref. 631913) contains 5 copies of this ISRE element, followed by the firefly luciferase ORF. A HEK293 cell line stably transfected with pISRE-Luc (HEK-ISREluc) was established to profile the conditioned PBMC cell culture media.
Briefly, PBMCs were prepared from buffy coats of at least two donors using a standard Ficoll centrifugation protocol. Isolated PBMCs were resuspended in RPMI medium supplemented with 10% human AB serum and 2×10^5 cells/well were dispensed into 384-well plates containing compounds (70 μL total volume). After overnight incubation, 10 μL of supernatant was transferred to 384-well plates containing 5×10^3 HEK-ISREluc cells/well in 30 μL (plated the day before). Following 24 hours of incubation, activation of the ISRE elements was measured by assaying luciferase activity using 40 μL/well Steady Lite Plus substrate (Perkin Elmer) and measured with ViewLux ultraHTS microplate imager (Perkin Elmer). The stimulating activity of each compound on the HEK-ISREluc cells was reported as LEC value, defined as the compound concentration applied to the PBMCs resulting in a luciferase activity at least two fold above the standard deviation of the assay. The LEC in turn indicates the degree of ISRE activation on transfer of a defined amount of PBMC culture medium. Recombinant interferon α-2a (Roferon-A) was used as a standard control compound.

SMILES	Human TLR 8 (LEC) (human TLR8) [µM]	Human TLR 7 (LEC) (human TLR7) [µM]	minimal effective concentration [1] [µM]
Cc1cnc(COc2nc(N)nc3ccn(Cc4ccccn4)c23)s1 [Compound 10]	>25		
Cc1cnc(COc2nc(N)nc3ccn(Cc4ccccn4)c23)o1 [Compound 11]	>25		
COc1cccnc1Cn1ccc2nc(N)nc(OCc3cc(C)on3)c21 [Compound 8]	>25	0.03	0.01
CCCCOc1nc(N)nc2ccn(Cc3ccccn3)c12 [Compound 4]	>25	1.4	0.6
Cc1cc(COc2nc(N)nc3ccn(Cc4ccccn4)c23)no1 [Compound 5]	>25		
COc1ccc(Cn2ccc3nc(N)nc(OCc4cc(C)on4)c32)nc1OC [Compound 7]	>25	0.08	0.03
COc1cccnc1Cn1ccc2nc(N)nc(OCc3ncc(C)o3)c21 [Compound 9]	>25		
CCCCOc1nc(N)nc2ccn(Cc3ccccc3)c12 [Compound 1]	>25	0.6	0.4
Cc1nc(COc2nc(N)nc3ccn(Cc4ccccn4)c23)no1 [Compound 6]	>25		
COCCn1ccc2nc(N)nc(OCc3cc(C)on3)c21 [Compound 2]	>25	2.7	0.5
COc1ccccc1Cn1ccc2nc(N)nc(OCc3cc(C)on3)c21 [Compound 3]	>25	0.1	0.03
